Test results as given in BindingDB's records for doi:10.7270/Q2TX3CTT (Broad Institute, 2010).

Biological target: Glycogen synthase kinase-3 beta (Homo sapiens, UniProt P49841)
Experiment: GSK3beta kinase inhibitor potency, dose response, biochemical, luminescence, cell-free homogeneous, retest (AID 434954)

Chain of Glycogen synthase kinase-3 beta (P49841 whole entry): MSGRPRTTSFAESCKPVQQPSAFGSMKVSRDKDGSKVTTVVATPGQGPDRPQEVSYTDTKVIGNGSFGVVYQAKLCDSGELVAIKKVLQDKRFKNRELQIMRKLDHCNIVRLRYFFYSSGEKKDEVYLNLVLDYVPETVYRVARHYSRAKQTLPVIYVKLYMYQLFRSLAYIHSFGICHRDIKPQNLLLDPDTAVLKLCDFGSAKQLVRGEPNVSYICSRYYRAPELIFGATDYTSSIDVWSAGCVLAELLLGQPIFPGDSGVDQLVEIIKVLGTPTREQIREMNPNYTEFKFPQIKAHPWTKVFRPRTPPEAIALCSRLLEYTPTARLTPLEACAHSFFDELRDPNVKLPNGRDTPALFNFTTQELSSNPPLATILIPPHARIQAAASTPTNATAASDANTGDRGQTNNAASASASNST

| SMILES | EC50 |
| --- | --- |
| COc1ccc(-c2nn(CCC(=O)O)cc2C=NNC(N)=S)cc1 [3-[4-[(carbamothioylhydrazinylidene)methyl]-3-(4-methoxyphenyl)-1-pyrazolyl]propanoic acid] | > 300 µM |
| COC(=O)Cc1ccc2sc(-c3ccccc3)nc2c1 [(2-Phenyl-benzothiazol-5-yl)-acetic acid methyl ester] | > 300 µM |
| CCc1ccc(CNC(=O)C2CCC(=O)N(CCc3ccc(Cl)cc3)C2)nc1 (stereo not given) [1-[2-(4-chlorophenyl)ethyl]-N-[(5-ethyl-2-pyridinyl)methyl]-6-oxo-3-piperidinecarboxamide] | > 300 µM |
| O=C(Nc1ccccn1)c1ccc(C(=O)Nc2ccccn2)cc1 [SMR000502618] | > 300 µM |
| CC(=O)Nc1cccc(Nc2nc(-c3ccccc3)nc3ccccc23)c1 [SMR000384461] | > 300 µM |
| CCn1c(SCC(=O)Nc2ccc(NC(C)=O)cc2)nnc1C1CC1 [N-(4-acetamidophenyl)-2-[(5-cyclopropyl-4-ethyl-1,2,4-triazol-3-yl)sulfanyl]ethanamide] | > 300 µM |
| Cc1c(C(=O)OCc2ccccc2)nnn1-c1nonc1N [(phenylmethyl) 1-(4-azanyl-1,2,5-oxadiazol-3-yl)-5-methyl-1,2,3-triazole-4-carboxylate] | 7.34 µM |
| CCCCC(=O)Nc1nc2c(OC)cc([N+](=O)[O-])cc2s1 [SMR000363192] | > 300 µM |
| c1cncc(CNc2nc(-c3cccnc3)nc3ccccc23)c1 [2-pyridin-3-yl-N-(pyridin-3-ylmethyl)quinazolin-4-amine] | > 300 µM |
| Cc1ccc(-c2cc(C(=O)NCCc3ccccn3)c3ccccc3n2)c(C)c1 [SMR000264677] | > 300 µM |
| O=[N+]([O-])c1cc(Cl)ccc1N1CCCCC1 [MLS000856435] | > 300 µM |
| CCc1ccc(NC(=O)C(NS(=O)(=O)c2cccc3nsnc23)c2ccccc2)cc1 (stereo not given) [2-(2,1,3-benzothiadiazol-4-ylsulfonylamino)-N-(4-ethylphenyl)-2-phenyl-ethanamide] | > 300 µM |
| Nc1nc(NCCCN2CCOCC2)nc(Nc2ccccc2F)c1[N+](=O)[O-] [MLS000769816] | 1.27 µM |
| N#Cc1c(-c2ccc(F)cc2)nc(-c2ccccc2)[nH]c1=O | > 300 µM |
| CSc1nc2c(c(=O)[nH]1)C(c1ccccc1)C1C(=O)CC(C)(C)CC1=N2 (stereo not given) [8,8-dimethyl-2-(methylthio)-5-phenyl-5,8,9,10-tetrahydropyrimido[4,5-b]quinoline-4,6(3H,7H)-dione] | > 300 µM |
| Cc1nn(-c2ccccn2)c2c1C(c1ccsc1)C1C(=O)CCCC1=N2 (stereo not given) [ethanol;3-methyl-1-(2-pyridinyl)-4-(3-thiophenyl)-4,6,7,8-tetrahydro-2H-pyrazolo[3,4-b]quinolin-5-one] | > 300 µM |
| COc1ccc(/C=C2/Sc3ccc(C(=O)NCCCN4CCOCC4)cc3NC2=O)cc1OC [(2E)-2-[(3,4-dimethoxyphenyl)methylidene]-N-[3-(4-morpholinyl)propyl]-3-oxo-4H-1,4-benzothiazine-6-carboxamide] | 60.3 µM |
| O=[N+]([O-])c1cc(Cl)ccc1N1CCCC1 [SMR000284754] | > 300 µM |
| CCCN(CCC)Cc1c(C(=O)NN=Cc2ccoc2)nnn1-c1nonc1N [1-(4-amino-1,2,5-oxadiazol-3-yl)-5-[(dipropylamino)methyl]-N-(3-furanylmethylideneamino)-4-triazolecarboxamide] | 8.52 µM |
| Nc1nc(NCCCN2CCOCC2)nc(Nc2ccccc2)c1[N+](=O)[O-] [SMR000219678] | 2.24 µM |
| CCOC(=O)CNC(=O)CSc1ccc2nnc(-c3cccnc3)n2n1 [ethyl 2-[[2-[(3-pyridin-3-yl-[1,2,4]triazolo[4,3-b]pyridazin-6-yl)sulfanyl]acetyl]amino]acetate] | > 300 µM |
| CCOC(=O)c1sc(=S)n(-c2ccccc2OC)c1N | > 300 µM |
| N=C(Cc1nc2ccccc2s1)NO [2-(1,3-benzothiazol-2-yl)-N'-oxidanyl-ethanimidamide] | > 300 µM |
| CC(=O)Oc1ccc2occ(C(=O)c3ccccc3)c2c1 [acetic acid (3-benzoyl-5-benzofuranyl) ester] | > 300 µM |
| CN1CCN(c2cc([N+](=O)[O-])ccc2Cl)CC1 | > 300 µM |
